The results in this text go back to US9815831B2, “3,5-disubstituted-3H-imidazo[4,5-B]pyridine and 3,5-disubstituted-3H-[1,2,3]triazolo[4,5-B] pyridine compounds as modulators of c-Met protein kinases” (Rhizen Pharmaceuticals SA, priority 2012, dated 2017).

Counter-ions that a name gives are not always drawn. Like-named read-outs stand apart in the source and are kept apart here.

The test system of one assay is MKN-45. Briefly: Inhibition of MKN-45 proliferation (MTT). The class given is cell-based, human. To be noted: MKN-45 proliferation; for GI50: read-out: MKN45 GI50. How it is done:
3. Inhibition of MKN-45 Proliferation:
Cell proliferation assays were carried out using the high Met expressing human gastric adenocarcinoma cell line, MKN-45, according to the following schedule: • Day 1: Cells were plated in 96-well plates in complete growth medium. • Day 2: Compounds at desired concentrations were added. • Day 5: Cell viability was determined using the 3-[4,5-dimethylthiazol-2-yl]-2,5-diphenyltetrazolium bromide (MTT) dye reduction test. Results: The results are as given as % Inhibition of MKN-45 proliferation at 100 nM and GI50 values in Table 4A to 4C above. 4. Inhibition of c-Met Kinase Phosphorylation in MKN-45 Cells: […]

Assay [1] deals with T1, human recombinant Met kinase (Homo sapiens, UniProt P08581).
T1 construct: purchased Cell Signalling Technology, Beverly, Mass
Briefly: Colorimetric determination of c-Met kinase activity (HTScan Met Kinase Assay Kit). The format is biochemical. As to conditions: for inhibition at 0.1 µM: 100 nM (cells without *), read-out: c-Met Enzyme % inhibition @ 100 nM; for inhibition: cells marked *: tested @ 300 nM, read-out: c-Met Enzyme % inhibition. The source says: 1. MET Kinase Assay Protocol:
Colorimetric Determination of c-Met Kinase Activity
The receptor tyrosine kinase c-Met is a heterodimeric transmembrane glycoprotein involved in several cellular processes that aid in tumor progression. Phosphorylation of the tyrosine residues in the c-Met kinase domain is critical for its activity and the resulting down-stream effects. The colorimetric assay allows detection of the phosphorylated form of a biotinylated peptide upon activation of human recombinant Met kinase.
MET Kinase Assay Protocol:
c-Met Kinase activity shall be determined using an HTScan® Met Kinase Assay Kit (Cell Signalling Technology, Beverly, Mass.) with modifications. All incubations are carried out at room temperature. Briefly, 12.5 μl of a 4× reaction cocktail (DTT/Kinase buffer containing appropriate quantity of human Met kinase) is added to each well of a 96-well plate containing 12.5 μl pre-diluted compound of interest and incubated for 5 minutes. After the initial incubation, 25 μl/well of 2×ATP/biotinylated peptide is added and incubated for an additional 30 minutes. The reaction is terminated by the addition of 50 μl/well stop buffer (50 mM EDTA, pH 8.0). The reaction mixture (25 μl/well) is then transferred to a streptavidin coated plate (Perkin Elmer, Cat#4009-0010) containing 75 μl dH2O and incubated for 60 minutes. The plate is washed with 200 μl/well wash buffer (1×PBS, 0.05% Tween-20). After washing, 100 μl/well phospho-tyrosine mAb (1:1000 in wash buffer containing 1% BSA) is added and incubated for 60 minutes. After another round of washes, 100 μl/well europium labelled anti-mouse IgG (1:500 in wash buffer containing 1% BSA) is added and incubated for an additional 30 minutes. Following additional washes, 100 μl/well Delfia^(R) enhancement solution (Perkin Elmer, Cat#1244-105) is added and incubated for 45 minutes. Florescence is measured on a microplate reader (BMG Labtech., Germany) at 340 nm (excitation) and 615 nm (emission) for calculating % inhibition. Data generated can be analyzed further using Graphpad Prism (Graphpad software, San Diego Calif.) for determination of IC50.
Results: The results are as given below in Table 4A, 4B and 4C as % Inhibition or IC50 of c-Met

T1 sequence (P08581 25-1390): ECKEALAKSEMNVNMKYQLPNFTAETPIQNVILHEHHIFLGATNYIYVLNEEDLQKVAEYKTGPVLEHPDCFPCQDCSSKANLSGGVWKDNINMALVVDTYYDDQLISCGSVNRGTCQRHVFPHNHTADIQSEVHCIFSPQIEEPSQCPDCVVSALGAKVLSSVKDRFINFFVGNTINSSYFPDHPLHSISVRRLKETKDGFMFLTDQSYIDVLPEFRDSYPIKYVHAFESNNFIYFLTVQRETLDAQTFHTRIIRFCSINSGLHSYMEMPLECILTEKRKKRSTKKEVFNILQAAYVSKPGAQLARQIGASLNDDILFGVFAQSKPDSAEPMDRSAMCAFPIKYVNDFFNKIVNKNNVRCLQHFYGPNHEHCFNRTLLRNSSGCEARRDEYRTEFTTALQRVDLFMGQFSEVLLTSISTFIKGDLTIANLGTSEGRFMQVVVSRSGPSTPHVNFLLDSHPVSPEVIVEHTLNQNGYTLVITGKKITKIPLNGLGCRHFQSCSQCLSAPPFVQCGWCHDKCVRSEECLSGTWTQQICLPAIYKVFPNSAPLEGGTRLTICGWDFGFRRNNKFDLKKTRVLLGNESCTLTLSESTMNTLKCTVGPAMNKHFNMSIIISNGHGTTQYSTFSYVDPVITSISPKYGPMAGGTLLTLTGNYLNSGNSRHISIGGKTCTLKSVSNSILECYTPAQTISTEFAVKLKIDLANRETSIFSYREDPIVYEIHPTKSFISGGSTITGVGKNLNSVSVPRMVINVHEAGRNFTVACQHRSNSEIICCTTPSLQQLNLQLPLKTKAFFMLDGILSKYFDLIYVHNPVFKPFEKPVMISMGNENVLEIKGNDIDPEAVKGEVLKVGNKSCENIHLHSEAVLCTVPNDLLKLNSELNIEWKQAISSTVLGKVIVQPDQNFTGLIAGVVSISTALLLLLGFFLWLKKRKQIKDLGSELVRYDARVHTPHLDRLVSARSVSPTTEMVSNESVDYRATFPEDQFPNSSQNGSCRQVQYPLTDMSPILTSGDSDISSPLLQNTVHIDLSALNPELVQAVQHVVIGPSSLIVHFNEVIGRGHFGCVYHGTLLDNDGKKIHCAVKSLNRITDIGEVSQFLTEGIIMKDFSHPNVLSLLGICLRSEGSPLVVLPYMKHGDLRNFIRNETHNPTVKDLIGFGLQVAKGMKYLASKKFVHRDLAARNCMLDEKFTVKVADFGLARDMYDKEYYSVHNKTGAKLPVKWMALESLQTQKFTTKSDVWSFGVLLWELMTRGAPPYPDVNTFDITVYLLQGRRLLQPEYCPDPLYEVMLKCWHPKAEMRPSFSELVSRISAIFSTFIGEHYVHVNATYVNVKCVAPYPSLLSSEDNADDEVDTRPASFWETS

Take `CNC(=O)CNC(=O)c1ccc(-c2ccc3nnn(Cc4ccc5ncccc5c4)c3n2)cc1` [Example 2, N-(2-(methylamino)-2-oxoethyl)-4-(3-(quinolin-6-ylmethyl)-3H-[1,2,3]triazolo[4,5-b]pyridin-5-yl)benzamide]: the 50% growth inhibitory concentration (GI50) (in general, the concentration at which growth is held to half of that of the control) with MKN-45 (Homo sapiens, MKN-45, Table 4A) lay in the range of 100 to 250 nM. Regarding `Cl.O=C(NOCCO)c1ccc(-c2ccc3nnn(Cc4cc5cccnc5cc4F)c3n2)cc1Cl` [Example 7a, 2-chloro-4-(3-((7-fluoroquinolin-6-yl)methyl)-3H-[1,2,3]triazolo[4,5-b]pyridin-5-yl)-N-(2-hydroxyethoxy)benzamide hydrochloride], the “MKN45 % inhibition @ 100 nM” value in the assay with MKN-45 (Table 4A) is “A (A= ≧75 to 100%)”.

As for `Cl.O=C(NOCCO)c1c(F)cc(-c2ccc3nnn(Cc4ccc5ncccc5c4)c3n2)cc1F` [Example 8a, 2,6-difluoro-N-(2-hydroxyethoxy)-4-(3-(quinolin-6-ylmethyl)-3H-[1,2,3]triazolo[4,5-b]pyridin-5-yl)benzamide hydrochloride], the “MKN45 % inhibition @ 100 nM” value with MKN-45 (Table 4A) is “C (C = ≧25-<50%)”.

Take `Cl.O=C(NOCCO)c1c(F)cc(-c2ccc3nnn(Cc4cc5cccnc5cc4F)c3n2)cc1F` [Example 9a, 2,6-difluoro-4-(3-((7-fluoroquinolin-6-yl)methyl)-3H-[1,2,3]triazolo[4,5-b]pyridin-5-yl)-N-(2-hydroxyethoxy)benzamide hydrochloride]: the “MKN45 % inhibition @ 100 nM” value with MKN-45 (Table 4A) is recorded as “A (A= ≧75 to 100%)”. Also, the GI50 in the assay on MKN-45 (Table 4A, hydrochloride) is 25 to 50 nM.

Take `Cc1cc(-c2ccc3nnn(Cc4ccc5ncccc5c4)c3n2)ccc1C(=O)NOCCO` [Example 25a, N-(2-hydroxyethoxy)-2-methyl-4-(3-(quinolin-6-ylmethyl)-3H-[1,2,3]triazolo[4,5-b]pyridin-5-yl)benzamide hydrochloride]: the “MKN45 % inhibition @ 100 nM” value in the assay with MKN-45 (Table 4A, hydrochloride, 0.1 µM) is listed as “B (B = ≧50-<75%)”.

In the case of `Cc1cc(-c2ccc3nnn(Cc4ccc5[nH]c(=O)ccc5c4)c3n2)ccc1C(=O)NOCCO` [Example 25d, N-(2-hydroxyethoxy)-2-methyl-4-(3-((2-oxo-1,2-dihydroquinolin-6-yl)methyl)-3H-[1,2,3]triazolo[4,5-b]pyridin-5-yl) benzamide], the inhibition (as a rule, the percentage by which the read-out fell short of the control) at 0.1 µM in assay [1] (Table 4A) was less than 25%. Same read-out and setting: the same measure for `Cc1cc(-c2ccc3nnn(Cc4ccc5ncccc5c4)c3n2)ccc1C(=O)NOC[C@H](C)O` [Example 36, (S)—N-(2-hydroxypropoxy)-2-methyl-4-(3-(quinolin-6-ylmethyl)-3H-[1,2,3]triazolo[4,5-b]pyridin-5-yl)benzamide]: 75 to 100%. Same read-out and setting: the same measure for `Cc1cc(-c2ccc3nnn(Cc4ccc5[nH]c(=O)ccc5c4)c3n2)ccc1C(=O)NOCC(C)(C)O` [Example 37, N-(2-hydroxy-2-methylpropoxy)-2-methyl-4-(3-((2-oxo-1,2-dihydroquinolin-6-yl)methyl)-3H-[1,2,3]triazolo[4,5-b]pyridin-5-yl)benzamide]: 50 to 75%; for `Cc1cc(-c2ccc3nnn(Cc4ccc5ncccc5c4)c3n2)ccc1C(=O)NO` [Example 42, N-Hydroxy-2-methyl-4-(3-quinolin-6-ylmethyl-3H-[1,2,3]triazolo[4,5-b]pyridin-5-yl)-benzamide]: 75 to 100%. The same measure, in the same setting: the same measure for `CC(=O)OCCONC(=O)c1ccc(-c2ccc3nnn(Cc4ccc5ncccc5c4)c3n2)cc1C` [Example 43, 2-(2-methyl-4-(3-(quinolin-6-ylmethyl)-3H-[1,2,3]triazolo[4,5-b]pyridin-5-yl)benzamidooxy)ethyl acetate]: 75 to 100%; for `Cc1cc(-c2ccc3nnn(Cc4ccc5ncccc5c4)c3n2)ccc1C(=O)NOCCOC(=O)C(C)C` [Example 44, 2-(2-methyl-4-(3-(quinolin-6-ylmethyl)-3H-[1,2,3]triazolo[4,5-b]pyridin-5-yl)benzamidooxy)ethyl isobutyrate]: 75 to 100%; for `Cc1cc(-c2ccc3nnn(Cc4ccc5ncccc5c4)c3n2)ccc1C(=O)NOCCOC(=O)C(C)(C)C` [Example 45, 2-(2-methyl-4-(3-(quinolin-6-ylmethyl)-3H-[1,2,3]triazolo[4,5-b]pyridin-5-yl)benzamidooxy)ethyl pivalate]: 75 to 100%.

Turning to `Cc1cc(-c2ccc3nnn(Cc4ccc5ncccc5c4)c3n2)ccc1C(=O)NOCCOC(=O)c1ccccc1` [Example 46, 2-(2-methyl-4-(3-(quinolin-6-ylmethyl)-3H-[1,2,3]triazolo[4,5-b]pyridin-5-yl)benzamidooxy)ethyl benzoate], the inhibition at 0.1 µM in assay [1] (Table 4A) was 75 to 100%. On the same count and under the same terms, the result for `Cc1cc(-c2ccc3nnn(Cc4ccc5ncccc5c4)c3n2)ccc1C(=O)NOCCOC(=O)c1ccco1` [Example 47, 2-(2-methyl-4-(3-(quinolin-6-ylmethyl)-3H-[1,2,3]triazolo[4,5-b]pyridin-5-yl)benzamidooxy)ethyl furan-2-carboxylate] reads 75 to 100%. In the case of `NC(=O)N/N=C(\N)c1ccc2nnn(Cc3ccc4ncccc4c3)c2n1` [Example 52, 2-(amino(3-(quinolin-6-ylmethyl)-3H-[1,2,3]triazolo[4,5-b]pyridin-5-yl)methylene)hydrazinecarboxamide], in assay [1] (Table 4A), the inhibition was less than 25%. The same measure, in the same setting: the result for `C/C(=N\N1CC(=O)NC1=O)c1ccc2nnn(Cc3ccc4ncccc4c3)c2n1` [Example 54, (E/Z)-1-(1-(3-(quinolin-6-ylmethyl)-3H-[1,2,3]triazolo[4,5-b]pyridin-5-yl)ethylideneamino)imidazolidine-2,4-dione] reads 25 to 50%. The same measure, in the same setting: the result for `CCNC(=S)N/N=C(\C)c1ccc2nnn(Cc3ccc4ncccc4c3)c2n1` [Example 55, N-ethyl-2-(1-(3-(quinolin-6-ylmethyl)-3H-[1,2,3]triazolo[4,5-b]pyridin-5-yl)ethylidene)hydrazinecarbothioamide] reads less than 25%. `C/C(=N\OCCNC(N)=O)c1ccc2nnn(Cc3ccc4ncccc4c3)c2n1` [Example 64, 1-(2-(1-(3-(quinolin-6-ylmethyl)-3H-[1,2,3]triazolo[4,5-b]pyridin-5-yl)ethylideneaminooxy)ethyl)urea]: the inhibition at 0.1 µM in assay [1] (Table 4A) lay within 50 to 75%. On the same count and under the same terms, the result for `CN(C)CCCNC(=O)c1ccc(-c2ccc3nnn(Cc4ccc5ncccc5c4)c3n2)cc1` [Example 68, N-(3-Dimethylamino-propyl)-4-(3-quinolin-6-ylmethyl-3H-[1,2,3]triazolo[4,5-b]pyridin-5-yl)-benzamide dihydrochloride] reads 75 to 100%. `CN(C)CCNC(=O)c1ccc(-c2ccc3ncn(Cc4ccc5ncccc5c4)c3n2)cc1Cl` [Example 101, 2-chloro-N-(2-(dimethylamino)ethyl)-4-(3-(quinolin-6-ylmethyl)-3H-imidazo[4,5-b]pyridin-5-yl)benzamide]: the inhibition in assay [1] (Table 4B) is less than 25%.

Turning to `O=C(NOCCO)c1ccc(-c2ccc3ncn(Cc4ccc5ncccc5c4)c3n2)cc1Cl` [Example 113, 2-Chloro-N-(2-hydroxy-ethoxy)-4-(3-quinolin-6-ylmethyl-3H-imidazo[4,5-b]pyridin-5-yl)-benzamide], the inhibition at 0.1 µM in assay [1] (Table 4B) fell in the range of 75 to 100%. Still for that read-out and setting: the result for `CC(C)(O)CONC(=O)c1ccc(-c2ccc3ncn(Cc4ccc5ncccc5c4)c3n2)cc1Cl` [Example 114, 2-Chloro-N-(2-hydroxy-2-methyl-propoxy)-4-(3-quinolin-6-ylmethyl-3H-imidazo[4,5-b]pyridin-5-yl)-benzamide] reads 75 to 100%. Consider `NC(=O)c1c(F)cc(-c2ccc3nnn(Cc4ccc5c(ccc[n+]5[O-])c4)c3n2)cc1F` [Example 1001, 6-((5-(4-carbamoyl-3,5-difluorophenyl)-3H-[1,2,3]triazolo[4,5-b]pyridin-3-yl)methyl)quinoline 1-oxide], for which the inhibition at 0.1 µM in assay [1] (Table 4C) was less than 25%. The same measure, in the same setting: the result for `NC(=O)c1ccc(-c2ccc3nnn(Cc4cc5ccc[n+]([O-])c5cc4F)c3n2)cc1Cl` [Example 1002] reads less than 25%.
